These results are taken from ChEMBL document CHEMBL1201862, “PubChem BioAssay data set” (2004).

Structures are written as SMILES.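 All cell lines were grown in 96-well plates and treated with compound for 48 hours. GI50: concentration for 50% inhibition of growth.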 Calls of active or inactive are those of the source. Cut-off read from the data, not from the text of the source: active = GI50 up to about 1.1 µM and inactive = higher. Some results are limits rather than exact numbers.

Assay in all cases: NCI-60 cell line screen, 48 h
Test [1] deals with ACHN.
Test [2] has as its system DU-145.
In test [3] the test system is HCT-116.
In test [4] the test system is HCT-15.
Test [5] concerns HL-60.
Test [6] deals with HOP-62.
The subject of test [7] is HOP-92.
In test [8] the test system is HT-29.
In test [9] the test system is K562.
In test [10] the test system is KM12.
Test [11] has as its system OVCAR-5.
Test [12] concerns RXF 393.
Test [13] relates to SF-268.
Test [14] concerns SK-MEL-28.
The subject of test [15] is SK-MEL-2.
Test [16] deals with SK-MEL-5.
For test [17], the system named is SN12C.
For test [18], the system named is SNB-19.
The test system of test [19] is U-251.
The subject of test [20] is SF-539.

`CCc1nc2cc3cccnc3c(Cl)c2[nH]c1=O`: the GI50 in test [1] was 78.7 µM (inactive); in test [2], > 100 µM (inactive); in [3], > 100 µM (inactive); in [4], above 100 µM; in [5] it was > 100 µM (inactive); in [6] it was > 100 µM (inactive). The GI50 in test [7] is 49.2 µM (inactive); in test [8], > 100 µM (inactive); in test [9] it was > 100 µM (inactive); in test [10] it was > 100 µM (inactive); in test [11], > 100 µM (inactive); in [12], 31.8 µM (inactive). The GI50 was > 100 µM (inactive) in test [13]; > 100 µM (inactive) in test [14]; > 100 µM (inactive) in test [15]; > 100 µM (inactive) in [16]; > 100 µM (inactive) in test [17]; 58.3 µM (inactive) in test [18]. In [19], the GI50 was 61.5 µM (inactive).

On to `C/C(=N\NC(=S)N(C)CCN(C)C(=S)N/N=C(\C)c1ccccn1)c1ccccn1`, for which the GI50 is 0.366 µM (active) in test [1]; 1.11 µM (active) in [2]; 0.281 µM (active) in test [3]; 0.45 µM in test [4]; 0.365 µM (active) in test [5]; 1.67 µM (inactive) in test [6]. For the same molecule, the GI50 is 2.72 µM (inactive) in test [7]; 0.224 µM (active) in test [8]; 1.55 µM (inactive) in test [9]; 0.435 µM (active) in [10]; 5.9 µM (inactive) in [11]; 0.0843 µM (active) in test [12]. Further, the GI50 in [13] is 0.321 µM (active); in [20] it was 1.66 µM (inactive); in test [14] it was 1.73 µM (inactive); in test [15], 10.1 µM (inactive); in [16], 0.431 µM (active); in [17] it was 1.05 µM (active). Further, the GI50 was 3.04 µM (inactive) in test [18] and 0.745 µM (active) in test [19].

`Cn1c2ccc(C3=NCCN3)cc2c2cc(C3=NCCN3)ccc21`: the GI50 in [1] is 37.9 µM (inactive); in test [2], 26.4 µM (inactive); in test [3] it was 21.9 µM (inactive); in [4], above 100 µM; in [5], < 0.01 µM (active); in test [6], 15.3 µM (inactive). The GI50 in test [7] was 13.4 µM (inactive); in [8], 7.82 µM (inactive); in test [9] it was 26.4 µM (inactive); in test [10] it was 1.56 µM (inactive); in test [11], 38.4 µM (inactive); in test [12], 34.3 µM (inactive). The GI50 was 0.0463 µM (active) in test [13]; 29.4 µM (inactive) in [20]; 24 µM (inactive) in test [14]; 33.5 µM (inactive) in test [15]; 31.3 µM (inactive) in test [16]; 6.31 µM (inactive) in test [17]. Also, the figures for the GI50 in test [18] and in test [19] were 42.8 µM (inactive) and 14.9 µM (inactive), respectively.

Regarding `CSC1=Nc2ccccc2-c2nc3ccccc3cc2C1`, the GI50 in test [1] is > 100 µM (inactive); in test [2], > 100 µM (inactive); in test [3] it was > 100 µM (inactive); in test [4], above 100 µM; in [5], 76 µM (inactive); in test [6] it was > 100 µM (inactive). Also, the GI50 in test [7] is > 100 µM (inactive); in [8] it was > 100 µM (inactive); in test [9], > 100 µM (inactive); in [10], 14.4 µM (inactive); in test [11], > 100 µM (inactive); in test [12], > 100 µM (inactive). Further, the GI50 in [13], in test [20], in test [14], in test [15], in test [16] and in test [17] was > 100 µM (inactive) in each case. Further, the GI50 in [18] and in [19] was > 100 µM (inactive) each time.

On to `COc1cc2c(cc1OC)C1C(O)C(OC)C(Br)C3(Br)CCN(C2)C13` (configuration not stated), for which the GI50 in [1] was > 100 µM (inactive); in [2], > 100 µM (inactive); in [3], > 100 µM (inactive); in [4], above 100 µM; in [5], > 100 µM (inactive); in test [6] it was > 100 µM (inactive). Besides, the GI50 in test [7] is 15.1 µM (inactive); in test [8] it was > 100 µM (inactive); in test [10] it was 94.8 µM (inactive); in test [11], > 100 µM (inactive); in [12], 18.5 µM (inactive); in test [13], 9.04 µM (inactive). The GI50 in [20] was > 100 µM (inactive); in [14], > 100 µM (inactive); in [15], > 100 µM (inactive); in test [16], > 100 µM (inactive); in [17], > 100 µM (inactive); in test [18], 46.2 µM (inactive). Besides, in [19], the GI50 is 47.1 µM (inactive).

Turning to `C=C1C(=O)O[C@@]23C1CC[C@@H](C)C2CC[C@@]1(C)OC31` (some centres not stated), the GI50 in test [1] is 12.4 µM (inactive); in [2], 3.85 µM (inactive); in test [3] it was 8.65 µM (inactive); in test [4] it was 9.33 µM; in test [5], 2.72 µM (inactive); in [6], 10 µM (inactive). Moreover, the GI50 was 8.79 µM (inactive) in test [7]; 5.86 µM (inactive) in test [8]; 7.78 µM (inactive) in [9]; 12.8 µM (inactive) in test [10]; 12.6 µM (inactive) in test [11]; 16.7 µM (inactive) in [12]. Also, the GI50 in test [13] was 13.7 µM (inactive); in [20] it was 3.24 µM (inactive); in [14] it was 6.35 µM (inactive); in test [15] it was 5.58 µM (inactive); in test [16], 3.24 µM (inactive); in test [17] it was 7.24 µM (inactive). Further, the GI50 is 18.6 µM (inactive) in [18] and 6.35 µM (inactive) in test [19].

Turning to `CCOC(=O)C1C(=O)C=C(c2cc(C)ccc2O)CC1c1cccc(Cl)c1` (configuration not stated), the GI50 in test [1] is 19.7 µM (inactive); in test [2], 50.1 µM (inactive); in test [3] it was 34 µM (inactive); in test [4] it was 3.13 µM; in [5], 25.8 µM (inactive); in test [6], 40.2 µM (inactive). Besides, the GI50 in test [7] is 13.5 µM (inactive); in test [8], 32 µM (inactive); in test [9], 12.9 µM (inactive); in test [10] it was 16.3 µM (inactive); in test [11], 43.7 µM (inactive); in [12] it was 19.3 µM (inactive). For the same molecule, the GI50 in test [13] was 22.3 µM (inactive); in [20], 19.6 µM (inactive); in test [15] it was 16.7 µM (inactive); in test [16], 19.2 µM (inactive); in test [17] it was 27.7 µM (inactive); in test [18] it was 19.6 µM (inactive). The GI50 in [19] is 18.5 µM (inactive).

As for `O=C(NCCCCCCCCNC(=O)c1cccc2ccccc12)c1cccc2ccccc12`, the GI50 was 17.1 µM (inactive) in test [1]; > 100 µM (inactive) in [2]; 24.4 µM (inactive) in test [3]; 97.5 µM in [4]; > 100 µM (inactive) in test [5]; 4.07 µM (inactive) in [6]. The GI50 in [7] was 4.34 µM (inactive); in test [8], > 100 µM (inactive); in test [9], > 100 µM (inactive); in test [10] it was > 100 µM (inactive); in test [11], > 100 µM (inactive); in [12], 2.25 µM (inactive). Further, the GI50 in [13] was 9.93 µM (inactive); in test [20], 4.94 µM (inactive); in test [14], > 59 µM (inactive); in [15] it was 37.2 µM (inactive); in [16] it was > 92.9 µM (inactive); in test [17] it was 18.8 µM (inactive). Further, the GI50 was 20.1 µM (inactive) in test [18] and 12.5 µM (inactive) in [19].

With `N#C/C(=C\c1cc(F)cc(F)c1)c1ccccn1`, the GI50 was 30.6 µM (inactive) in test [1]; 36.9 µM (inactive) in test [2]; 27.9 µM (inactive) in test [3]; 15.4 µM in test [4]; > 10 µM (inactive) in test [5]; > 10 µM (inactive) in [6]. The GI50 is 20.5 µM (inactive) in [7]; 34.4 µM (inactive) in test [8]; 15.5 µM (inactive) in test [9]; 22.1 µM (inactive) in test [10]; 28.8 µM (inactive) in [11]; 26.7 µM (inactive) in [12]. For the same molecule, the GI50 was 19.4 µM (inactive) in [13]; 19.5 µM (inactive) in [20]; 47 µM (inactive) in test [14]; 22.9 µM (inactive) in test [15]; 13.3 µM (inactive) in test [16]; 24 µM (inactive) in [17]. Besides, the GI50 in [18] is 45.6 µM (inactive); in test [19], 16.8 µM (inactive).

Consider `C=C[C@]1(C)CC(O)C2C(=C)C(=O)OC2[C@H]1C(=C)C=O` (some centres not stated), for which the GI50 in [1] is 2.36 µM (inactive); in test [2], 12.1 µM (inactive); in test [3], 1.64 µM (inactive); in [4] it was 2.06 µM; in [5], 0.893 µM (active); in [6] it was 15.5 µM (inactive). For the same molecule, the GI50 in [7] is 2.61 µM (inactive); in [8], 2.33 µM (inactive); in [9] it was 2.52 µM (inactive); in test [10], 2.17 µM (inactive); in test [11] it was 10.8 µM (inactive); in [12] it was 2.07 µM (inactive). Also, the GI50 was 3.95 µM (inactive) in [13]; 3.29 µM (inactive) in test [20]; 1.3 µM (inactive) in test [14]; 3.5 µM (inactive) in test [15]; 2.33 µM (inactive) in test [16]; 2.37 µM (inactive) in [17]. Also, the GI50 in test [18] is 18.2 µM (inactive); in [19] it was 9.04 µM (inactive).
